We go through one substance from article PMC6222780, “Synthesis, Spectroscopic Analysis and Assessment of the Biological Activity of New Hydrazine and Hydrazide Derivatives of 3-Formylchromone” (Molecules : A Journal of Synthetic Chemistry and Natural …, 2018).

Holding throughout (type): cell-based
Test [1] deals with Staphylococcus aureus NCTC 4135. The test can be described thus: Disc diffusion, inhibition of growth zones. Conditions: S. aureus; discs at 100 or 200 µg/mL, 24 h at 37 °C. The procedure: (§1) Fifteen strains of microorganisms from different species were used. The growth inhibition zones were evaluated in two independent experiments (n = 2 in each of them), and the potential inhibitors of microbial growth are presented in Table 3. The hydrazine and hydrazide derivatives of 3-formylchromone constitute a class of potential antimicrobial agents and are worthy of further investigation. […] In case of N. meningitidis (result with *) the action of 9 was noted just for 100 µg/mL and the influence in concentration of 200 µg/mL was not observed.
(§2) The microbial reference strains representing different families of bacteria and fungi, pathogenic for man and animals, were used. The 15 strains were derived from international microbial collections held by the Department of Pharmaceutical Microbiology and Microbiological Diagnostics of the Medical University of Lodz: Candida albicans ATCC 10231, Enterococcus faecalis ATCC 29212, Klebsiella pneumoniae ATCC 700603, Pseudomonas aeruginosa NCTC 6749, Proteus vulgaris CCM 1799, Staphylococcus epidermidis ATCC 12228, Shigella flexneri ATCC 12022, Streptococcus pneumoniae ATCC 49619, Streptococcus pyogenes ATCC 19615, Corynebacterium jeikeium K411, Escherichia coli ATCC 25922, Staphylococcus aureus NCTC 4135, Streptococcus dysgalactiae subsp. equisimilis ATCC 12394, Neisseria meningitidis DSM 25942, Listeria monocytogenes PCM 2191.
(§3) The strains were stored at −80 °C, frozen in a 1:1 mixture of Brain Heart Infusion (BHI) broth and glycerol. The reference strains, depending on the growth requirements, were grown on a solid medium—nutrient agar, nutrient agar with 5% addition of lambs defibrinated blood or (in the case of Corynebacterium jeikeium) Triptic Soy Agar (TSA) with the addition of sheep blood, yeast extract and Tween-80. The susceptibility of the strains to chemical compounds was measured analogously to the adopted method of diffusion and disc preparation of antibiotics for compounds introduced into treatment. After receiving the pure culture of the reference strain, obtained from frozen samples and grown on the appropriate medium for growth requirements, suspensions of the tested strains were prepared in a physiological NaCl solution with a density of 0.5 on the McFarland scale. These suspensions were seeded with a cotton ball over the entire surface of the test medium. Discs impregnated with the test compound at a concentration of 100 or 200 µg/mL were then placed on it and incubated for 24 h at 37 °C.
On the technique in general: A growth-free zone around the sample is the usual read-out of agar diffusion tests.

In test [2] the test system is Staphylococcus epidermidis ATCC 12228. The test can be described thus: Disc diffusion, inhibition of growth zones. Conditions: S. epidermidis; discs at 100 or 200 µg/mL, 24 h at 37 °C. The procedure: as §1, §2, §3
The test system of test [3] is Streptococcus pyogenes ATCC 19615. As to the kind of experiment: Disc diffusion, inhibition of growth zones. The note with it: S. pyogenes; discs at 100 or 200 µg/mL, 24 h at 37 °C. As for the experimental part: as §1, §2, §3
The subject of test [4] is L929 cell line (mouse fibroblast cell line). The test can be described thus: XTT assay, cell proliferation study. The procedure:
(§4) Four independent experiments (n = 4 for each used concentration) were performed. […] This indicates good or very good (in the case of 1, 3, 5, 8, 11) selectivity of action. […] Due to the dual action of these compounds, it would be advisable to study their effect on stimulation of proliferation at concentrations below 0.01 μmol/L. This dual action may be desirable during therapy, because the dosage may affect the nature of the compounds.
The mouse fibroblast cell line L929 (Sigma-Aldrich) was grown in MEM (Minimum Essential Medium) (Biowest, Nuaillé, France) containing 10% of Fetal Bovine Serum (Biowest), 1 mmol/L sodium pyruvate (Biological Industries, Cromwell, CT, USA), 0.5 mmol/L non-essential amino acids (Sigma-Aldrich) and 100 units/mL penicillin with […] streptomycin (Biological Industries) in an incubator at 37 °C with 5% CO2. Cells were plated and grown to 80% confluence before the initiation of the assay.
(§5) The XTT assay was used to evaluate cell metabolic activity. […] The number of viable cells is correlated with the colour intensity determined by photometric measurements. XTT (Serva, Heidelberg, Germany) was dissolved in MEM without phenol red (PAN-Biotech, Aidenbach, Germany) or DMEM without phenol red (PAN-Biotech) at a concentration of 1 mg/mL. Phenazine metosulphate (PMS) (Serva) was dissolved in phosphate-buffered saline (PBS, 5 mmol/L). PMS solution was then added to the XTT solution at a concentration of 25 μM. Investigated compounds were dissolved in dimethyl sulfoxide (DMSO) to obtain stock solutions.
(§6) L929 and EA.hy926 cells were seeded into 96-well plates at a density of 1 × 10^4 cells per well. They were cultured for 24 h in the incubator (37 °C and 5% CO2). After that time, the medium was removed. Then the 100 µL of medium containing investigated compounds (in the range of concentration 0.01–1250 µmol/L) or only culture medium (blank control) were added. Cisplatin was used as a reference compound. Cells were further incubated for 24 h. At the third day, the old medium were removed and cells were washed with PBS. 100 µL of culture medium with the additional 50 µL of the XTT/PMS solution were added to each well. Plates were incubated in the dark for 3 h at 37 °C. Then, the plates were swayed and an aliquot of 100 µL from each well was transferred into the corresponding well of a new plate. Finally, the absorbance was measured by using the microplate reader (Synergy H1, BioTek, Winooski, VT, USA) at a wavelength of 450 nm. The cell viability was expressed as a percentage of the control values (blanks).
Background: Formazan colour is commonly taken as a measure of viable cells.

In test [5] the test system is EA.hy926 cell line (the human umbilical vein, somatic cell hybrid). The test can be described thus: XTT assay, cell proliferation study. The procedure: as §4
The EA.hy926 cell line (the human umbilical vein, somatic cell hybrid, American Type Culture Collection, Manassas, VA, USA) was used to evaluate the cytotoxicity of novel compounds. Cells were grown in Dulbecco’s Modified Eagle’s Medium (DMEM) which contains 10% of Fetal Bovine Serum (Biowest), 2 mmol/L glutamine (Sigma-Aldrich) and 100 units/mL penicillin with […] streptomycin (Biological Industries). Cells were plated and grown in an incubator at 37 °C with 5% CO2 to 80% confluence before the initiation of the assay.
as §5, §6

The test system of test [6] is Fifteen strains of microorganisms from different species. The test can be described thus: Initial antimicrobial screening by disc diffusion on the whole panel. Conditions: 15 strains, discs at 100 or 200 µg/mL. As for the experimental part:
as §1, §2, §3

pIC50: −log10 of the molar value.

For “Complex of 4-Fluorobenzoic acid [1-(4-oxo-4H-chromen-3-yl)-meth-(E)-ylidene]-hydrazide with Cu (II) [Compound 11]”, the “Inhibition of growth zones (lowest effective studied concentration)” value in test [1] came out at 100 µg/mL; in test [2], 100 µg/mL; in test [3], 200 µg/mL. Further, in test [4] (L929, XTT, 24 h incubation, 0.01–1250 µmol/L), the pIC50 is 4.46. Moreover, the “The Range of Influence [%, Control = 100%]” value in test [4] (L929, XTT, viability over 0.01–1250 µmol/L, control = 100%) is 10.30–75.02%; in test [5] (EA.hy926, XTT, viability over 0.01–1250 µmol/L, control = 100%), 8.58–53.23%. In addition, the “IC50 value lower than ligand 5” value in test [4] (L929, complex 11 compared with ligand 5) is 46.89%; in test [5] (EA.hy926, complex 11 compared with ligand 5), 77.78%. In addition, the “Selectivity of action (IC50 EA.hy926 versus L929)” value in test [5] (IC50 lower for EA.hy926 than for L929) was “very good”. Also, the “Inhibition of microbial growth (result in words)” value in test [6] is listed as “exhibit antimicrobial potential”.

By pIC50 is commonly meant the IC50 on a negative log10 scale, so that one unit is a factor of ten.
